Experimental findings from ChEMBL document CHEMBL4304811, “Development of a Water-Soluble Indolylmaleimide Derivative IM-93 Showing Dual Inhibition of Ferroptosis and NETosis” (ACS Med Chem Lett, 2019) are described below.

The target of experiment [1] is Mast/stem cell growth factor receptor Kit (Homo sapiens) (UniProt P10721). The experiment is described as follows: Binding affinity to wild-type human partial length KIT (I571 to D952 residues) expressed in bacterial expression system assessed as residual binding level at 10 uM by Kinomescan method relative to control.
For experiment [2], the target named is Serine/threonine-protein kinase Sgk2 (Homo sapiens) (UniProt Q9HBY8). The experiment is described as follows: Binding affinity to wild-type human partial length SGK2 (L54 to C427 residues) expressed in mammalian expression system assessed as residual binding level at 10 uM by Kinomescan method relative to control.
In experiment [3] the test system is Phosphatidylinositol 4,5-bisphosphate 3-kinase catalytic subunit alpha isoform (Homo sapiens), P42336 [Q546K]. Kind of experiment: Binding affinity to human partial length PIK3CA Q546K mutant (R108 to N1068 residues) expressed in mammalian expression system assessed as residual binding level at 10 uM by Kinomescan method relative to control.
The target in experiment [4] is RAC-beta serine/threonine-protein kinase (Homo sapiens) (UniProt P31751). Kind of experiment: Binding affinity to wild-type human partial length AKT2 expressed in bacterial expression system assessed as residual binding level at 10 uM by Kinomescan method relative to control.
Experiment [5] has as its target Serine/threonine-protein kinase/endoribonuclease IRE1 (Homo sapiens) (UniProt O75460). Kind of experiment: Binding affinity to wild-type human partial length ERN1 (S551 to E852 residues) expressed in mammalian expression system assessed as residual binding level at 10 uM by Kinomescan method relative to control.
For experiment [6], the target named is LIM domain kinase 1 (Homo sapiens) (UniProt P53667). The experiment is described as follows: Binding affinity to wild-type human full length LIMK1 (M1 to D647 residues) expressed in bacterial expression system assessed as residual binding level at 10 uM by Kinomescan method relative to control.
Chain of LIM domain kinase 1 (Homo sapiens) (P53667 whole entry, looked up, the tested form may be a part): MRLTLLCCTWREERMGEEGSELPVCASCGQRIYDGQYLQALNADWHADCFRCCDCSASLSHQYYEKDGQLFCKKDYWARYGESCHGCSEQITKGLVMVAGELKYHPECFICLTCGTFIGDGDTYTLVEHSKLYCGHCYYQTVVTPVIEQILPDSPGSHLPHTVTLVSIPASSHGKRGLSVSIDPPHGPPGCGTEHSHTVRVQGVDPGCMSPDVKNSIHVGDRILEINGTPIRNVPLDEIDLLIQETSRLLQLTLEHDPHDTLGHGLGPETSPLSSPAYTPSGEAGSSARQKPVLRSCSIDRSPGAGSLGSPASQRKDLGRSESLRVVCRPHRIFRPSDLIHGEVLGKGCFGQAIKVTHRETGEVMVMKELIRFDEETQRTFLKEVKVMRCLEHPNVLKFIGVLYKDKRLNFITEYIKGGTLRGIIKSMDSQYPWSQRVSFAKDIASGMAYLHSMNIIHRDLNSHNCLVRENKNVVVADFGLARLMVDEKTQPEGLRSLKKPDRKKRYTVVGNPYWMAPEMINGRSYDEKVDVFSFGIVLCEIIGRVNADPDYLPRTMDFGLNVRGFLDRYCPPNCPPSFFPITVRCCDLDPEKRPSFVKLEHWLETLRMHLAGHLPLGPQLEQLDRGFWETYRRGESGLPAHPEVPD
Experiment [7] addresses LIM domain kinase 2 (Homo sapiens) (UniProt P53671). The experiment is described as follows: Binding affinity to wild-type human full length LIMK2 (M1 to P638 residues) expressed in bacterial expression system assessed as residual binding level at 10 uM by Kinomescan method relative to control.
For experiment [8], the target named is Calcium/calmodulin-dependent protein kinase kinase 1 (Homo sapiens) (UniProt Q8N5S9). The experiment is described as follows: Binding affinity to wild-type human partial length CAMKK1 (R65 to E414 residues) expressed in bacterial expression system assessed as residual binding level at 10 uM by Kinomescan method relative to control.
In experiment [9] the target is Mitogen-activated protein kinase 6 (Homo sapiens) (UniProt Q16659). Kind of experiment: Binding affinity to wild-type human partial length ERK3 (M1 to P413 residues) expressed in bacterial expression system assessed as residual binding level at 10 uM by Kinomescan method relative to control.
Chain of Mitogen-activated protein kinase 6 (Homo sapiens) (Q16659 whole entry, the tested form may be a part): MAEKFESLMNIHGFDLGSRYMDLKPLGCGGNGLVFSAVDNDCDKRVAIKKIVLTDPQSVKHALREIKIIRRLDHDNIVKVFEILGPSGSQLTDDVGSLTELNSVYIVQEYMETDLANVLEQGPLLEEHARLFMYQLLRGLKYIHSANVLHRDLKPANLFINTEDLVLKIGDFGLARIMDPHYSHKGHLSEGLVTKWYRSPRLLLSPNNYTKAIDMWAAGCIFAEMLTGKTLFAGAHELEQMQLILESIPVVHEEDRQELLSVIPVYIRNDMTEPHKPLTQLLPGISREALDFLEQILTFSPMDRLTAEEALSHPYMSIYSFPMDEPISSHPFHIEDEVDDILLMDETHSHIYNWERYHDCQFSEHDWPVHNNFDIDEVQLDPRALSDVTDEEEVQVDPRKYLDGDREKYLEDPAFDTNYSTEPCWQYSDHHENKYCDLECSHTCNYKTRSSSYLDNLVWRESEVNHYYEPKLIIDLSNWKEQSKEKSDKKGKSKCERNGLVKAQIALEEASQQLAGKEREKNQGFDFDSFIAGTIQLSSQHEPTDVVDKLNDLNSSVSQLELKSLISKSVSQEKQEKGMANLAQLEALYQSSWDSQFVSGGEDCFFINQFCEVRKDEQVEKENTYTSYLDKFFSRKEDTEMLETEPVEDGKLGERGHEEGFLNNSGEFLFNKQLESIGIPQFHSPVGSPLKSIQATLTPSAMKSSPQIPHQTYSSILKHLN
The target in experiment [10] is Ribosomal protein S6 kinase alpha-1 (Homo sapiens) (UniProt Q15418). Kind of experiment: Binding affinity to wild-type human partial length C- terminal RSK1 kinase domain 2 (P360 to L681 residues) expressed in bacterial expression system assessed as residual binding level at 10 uM by Kinomescan method relative to control.
Chain of Ribosomal protein S6 kinase alpha-1 (Homo sapiens) (Q15418 whole entry, the tested form may be a part): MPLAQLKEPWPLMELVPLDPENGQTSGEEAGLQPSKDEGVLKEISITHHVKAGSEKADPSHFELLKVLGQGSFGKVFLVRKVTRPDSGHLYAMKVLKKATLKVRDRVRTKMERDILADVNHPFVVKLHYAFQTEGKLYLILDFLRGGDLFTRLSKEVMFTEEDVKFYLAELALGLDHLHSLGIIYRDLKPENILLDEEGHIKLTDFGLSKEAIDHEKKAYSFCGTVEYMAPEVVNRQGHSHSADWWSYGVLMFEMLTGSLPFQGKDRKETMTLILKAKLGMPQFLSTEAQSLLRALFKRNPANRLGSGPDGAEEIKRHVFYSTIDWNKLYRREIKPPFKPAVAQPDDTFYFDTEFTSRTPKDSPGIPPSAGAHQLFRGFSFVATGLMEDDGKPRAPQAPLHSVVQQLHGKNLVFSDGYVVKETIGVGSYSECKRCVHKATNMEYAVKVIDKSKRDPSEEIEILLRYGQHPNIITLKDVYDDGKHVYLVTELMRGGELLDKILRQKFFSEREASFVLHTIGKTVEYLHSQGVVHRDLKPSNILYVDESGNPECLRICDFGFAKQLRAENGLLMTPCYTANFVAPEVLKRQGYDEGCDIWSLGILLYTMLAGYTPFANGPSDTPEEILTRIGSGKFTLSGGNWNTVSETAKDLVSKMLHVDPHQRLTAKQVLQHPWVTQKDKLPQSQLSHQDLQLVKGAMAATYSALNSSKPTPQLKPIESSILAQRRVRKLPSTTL
Experiment [11] concerns the target AP2-associated protein kinase 1 (Homo sapiens) (UniProt Q2M2I8). The experiment is described as follows: Binding affinity to wild-type human partial length AAK1 (G25 to L333 residues) expressed in bacterial expression system assessed as residual binding level at 10 uM by Kinomescan method relative to control.
For experiment [12], the target named is Aurora kinase A (Homo sapiens) (UniProt O14965). Kind of experiment: Binding affinity to wild-type human partial length AURKA (E122 to K401 residues) expressed in mammalian expression system assessed as residual binding level at 10 uM by Kinomescan method relative to control.
The target in experiment [13] is Dual specificity mitogen-activated protein kinase kinase 4 (Homo sapiens) (UniProt P45985). The experiment is described as follows: Binding affinity to wild-type human partial length MEK4 (S84 to D399 residues) expressed in mammalian expression system assessed as residual binding level at 10 uM by Kinomescan method relative to control.
In experiment [14] the target is Mitogen-activated protein kinase kinase kinase 20 (Homo sapiens) (UniProt Q9NYL2). Kind of experiment: Binding affinity to wild-type human partial length ZAK (M1 to L331 residues) expressed in bacterial expression system assessed as residual binding level at 10 uM by Kinomescan method relative to control.
In experiment [15] the target is Casein kinase I isoform alpha-like (Homo sapiens) (UniProt Q8N752). The experiment is described as follows: Binding affinity to wild-type human full length CSNK1A1L (M1 to N337 residues) expressed in bacterial expression system assessed as residual binding level at 10 uM by Kinomescan method relative to control.
Experiment [16] deals with Serine/threonine-protein kinase PAK 4 (Homo sapiens) (UniProt O96013). The experiment is described as follows: Binding affinity to wild-type human partial length PAK4 (Q144 to R438 residues) expressed in bacterial expression system assessed as residual binding level at 10 uM by Kinomescan method relative to control.
The target of experiment [17] is Vascular endothelial growth factor receptor 2 (Homo sapiens) (UniProt P35968). The experiment is described as follows: Binding affinity to wild-type human partial length VEGFR2 (R787 to P1253 residues) expressed in mammalian expression system assessed as residual binding level at 10 uM by Kinomescan method relative to control.
The target of experiment [18] is Myosin light chain kinase 2, skeletal/cardiac muscle (Homo sapiens) (UniProt Q9H1R3). The experiment is described as follows: Binding affinity to wild-type human partial length MYLK2 (D258 to K570 residues) expressed in bacterial expression system assessed as residual binding level at 10 uM by Kinomescan method relative to control.
The target of experiment [19] is Inhibitor of nuclear factor kappa-B kinase subunit epsilon (Homo sapiens) (UniProt Q14164). Kind of experiment: Binding affinity to wild-type human full length IKK-epsilon (M1 to V716 residues) expressed in mammalian expression system assessed as residual binding level at 10 uM by Kinomescan method relative to control.
Chain of Inhibitor of nuclear factor kappa-B kinase subunit epsilon (Homo sapiens) (Q14164 whole entry, the tested form may be a part): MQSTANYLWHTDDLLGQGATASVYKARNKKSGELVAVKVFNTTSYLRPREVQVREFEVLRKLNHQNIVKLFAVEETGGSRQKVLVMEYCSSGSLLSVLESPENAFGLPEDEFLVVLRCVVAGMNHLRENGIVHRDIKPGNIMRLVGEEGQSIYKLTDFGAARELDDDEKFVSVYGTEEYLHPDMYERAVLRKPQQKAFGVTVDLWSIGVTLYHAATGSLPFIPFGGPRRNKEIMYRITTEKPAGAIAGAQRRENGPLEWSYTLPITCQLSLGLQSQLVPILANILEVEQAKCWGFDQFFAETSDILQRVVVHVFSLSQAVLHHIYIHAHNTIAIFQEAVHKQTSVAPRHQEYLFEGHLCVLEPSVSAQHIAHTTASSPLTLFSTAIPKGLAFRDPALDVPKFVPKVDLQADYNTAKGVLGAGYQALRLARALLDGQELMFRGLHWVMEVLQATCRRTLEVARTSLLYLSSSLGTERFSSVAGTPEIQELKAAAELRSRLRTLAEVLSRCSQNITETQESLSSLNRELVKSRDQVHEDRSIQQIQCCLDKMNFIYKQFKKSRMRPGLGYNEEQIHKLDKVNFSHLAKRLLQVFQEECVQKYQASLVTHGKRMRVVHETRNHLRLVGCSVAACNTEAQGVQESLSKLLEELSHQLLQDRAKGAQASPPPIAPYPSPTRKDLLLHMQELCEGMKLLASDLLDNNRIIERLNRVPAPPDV
In experiment [20] the target is Mitogen-activated protein kinase 1 (Homo sapiens) (UniProt P28482). Kind of experiment: Binding affinity to wild-type human full length ERK2 (M1 to S360 residues) expressed in bacterial expression system assessed as residual binding level at 10 uM by Kinomescan method relative to control.
The target of experiment [21] is Dual specificity mitogen-activated protein kinase kinase 7 (Homo sapiens) (UniProt O14733). The experiment is described as follows: Binding affinity to wild-type human full length MKK7 (M1 to R419 residues) expressed in mammalian expression system assessed as residual binding level at 10 uM by Kinomescan method relative to control.
For experiment [22], the target named is Serine/threonine-protein kinase LATS2 (Homo sapiens) (UniProt Q9NRM7). Kind of experiment: Binding affinity to wild-type human partial length LATS2 (Q641 to V1088 residues) expressed in mammalian expression system assessed as residual binding level at 10 uM by Kinomescan method relative to control.
Chain of Serine/threonine-protein kinase LATS2 (Homo sapiens) (Q9NRM7 whole entry, the tested form may be a part, canonical isoform): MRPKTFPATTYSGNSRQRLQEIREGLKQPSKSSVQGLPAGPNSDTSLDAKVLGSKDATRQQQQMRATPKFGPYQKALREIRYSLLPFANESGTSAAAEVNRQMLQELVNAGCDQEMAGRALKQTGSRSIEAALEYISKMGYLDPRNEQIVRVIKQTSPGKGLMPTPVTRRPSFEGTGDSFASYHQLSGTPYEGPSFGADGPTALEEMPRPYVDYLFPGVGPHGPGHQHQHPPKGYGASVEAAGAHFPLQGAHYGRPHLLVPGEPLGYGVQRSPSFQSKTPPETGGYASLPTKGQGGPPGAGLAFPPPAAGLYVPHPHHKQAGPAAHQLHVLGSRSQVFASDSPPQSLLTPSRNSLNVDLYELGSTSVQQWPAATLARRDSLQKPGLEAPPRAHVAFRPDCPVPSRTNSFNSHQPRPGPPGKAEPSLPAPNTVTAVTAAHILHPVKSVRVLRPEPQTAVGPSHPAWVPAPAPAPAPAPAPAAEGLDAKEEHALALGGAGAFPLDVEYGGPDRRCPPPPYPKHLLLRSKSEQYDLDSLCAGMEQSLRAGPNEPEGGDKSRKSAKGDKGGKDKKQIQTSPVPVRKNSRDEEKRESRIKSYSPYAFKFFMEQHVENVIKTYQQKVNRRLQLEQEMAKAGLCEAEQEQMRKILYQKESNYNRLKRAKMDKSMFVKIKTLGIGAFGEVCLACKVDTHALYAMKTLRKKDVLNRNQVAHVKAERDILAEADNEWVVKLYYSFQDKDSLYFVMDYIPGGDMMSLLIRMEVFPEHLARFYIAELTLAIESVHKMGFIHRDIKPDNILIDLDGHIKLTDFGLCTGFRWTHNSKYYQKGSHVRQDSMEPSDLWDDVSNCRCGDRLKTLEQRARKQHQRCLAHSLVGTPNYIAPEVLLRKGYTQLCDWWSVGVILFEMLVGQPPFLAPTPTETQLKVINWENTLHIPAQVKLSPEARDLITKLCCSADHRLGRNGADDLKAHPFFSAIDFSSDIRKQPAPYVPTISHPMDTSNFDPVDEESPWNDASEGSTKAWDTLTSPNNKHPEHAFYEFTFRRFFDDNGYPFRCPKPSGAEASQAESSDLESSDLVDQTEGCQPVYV
Experiment [23] relates to Phosphatidylinositol 4,5-bisphosphate 3-kinase catalytic subunit alpha isoform (Homo sapiens), P42336 [I800L]. Kind of experiment: Binding affinity to human partial length PIK3CA I800L mutant (R108 to N1068 residues) expressed in mammalian expression system assessed as residual binding level at 10 uM by Kinomescan method relative to control.
Chain of Phosphatidylinositol 4,5-bisphosphate 3-kinase catalytic subunit alpha isoform (Homo sapiens), P42336 [I800L] (P42336 whole entry I800L, the tested form may be a part, canonical isoform): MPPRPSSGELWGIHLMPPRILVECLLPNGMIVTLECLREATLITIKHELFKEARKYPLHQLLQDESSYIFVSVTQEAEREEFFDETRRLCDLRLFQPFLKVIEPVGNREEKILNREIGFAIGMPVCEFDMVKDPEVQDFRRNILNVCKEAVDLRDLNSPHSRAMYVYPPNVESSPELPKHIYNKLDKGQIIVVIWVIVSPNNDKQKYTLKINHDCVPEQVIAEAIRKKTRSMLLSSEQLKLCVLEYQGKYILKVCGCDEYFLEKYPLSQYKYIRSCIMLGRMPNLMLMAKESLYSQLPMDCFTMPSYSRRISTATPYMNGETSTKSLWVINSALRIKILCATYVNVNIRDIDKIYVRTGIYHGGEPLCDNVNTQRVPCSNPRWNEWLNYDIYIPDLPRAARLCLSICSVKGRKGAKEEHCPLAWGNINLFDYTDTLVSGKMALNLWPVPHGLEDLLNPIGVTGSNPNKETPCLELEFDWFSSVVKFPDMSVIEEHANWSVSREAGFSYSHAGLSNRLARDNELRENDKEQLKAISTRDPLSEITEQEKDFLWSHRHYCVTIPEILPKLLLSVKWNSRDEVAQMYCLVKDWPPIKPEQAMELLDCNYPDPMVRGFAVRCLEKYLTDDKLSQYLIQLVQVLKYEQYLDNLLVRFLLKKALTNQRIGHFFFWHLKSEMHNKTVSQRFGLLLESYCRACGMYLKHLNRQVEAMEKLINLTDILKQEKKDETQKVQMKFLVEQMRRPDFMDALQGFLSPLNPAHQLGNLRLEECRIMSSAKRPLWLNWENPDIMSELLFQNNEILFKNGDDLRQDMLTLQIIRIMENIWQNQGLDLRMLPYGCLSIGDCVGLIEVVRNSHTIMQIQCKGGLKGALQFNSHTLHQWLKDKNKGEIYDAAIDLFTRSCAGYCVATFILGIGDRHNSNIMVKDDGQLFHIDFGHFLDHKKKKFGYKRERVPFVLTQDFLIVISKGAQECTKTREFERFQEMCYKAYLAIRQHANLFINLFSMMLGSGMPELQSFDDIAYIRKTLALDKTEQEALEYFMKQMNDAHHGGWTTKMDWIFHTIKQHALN
The target in experiment [24] is Ribosomal protein S6 kinase alpha-5 (Homo sapiens) (UniProt O75582). The experiment is described as follows: Binding affinity to wild-type human partial length N- terminal RPS6KA5 kinase domain 1 expressed in bacterial expression system assessed as residual binding level at 10 uM by Kinomescan method relative to control.

For `CC(C)N1C(=O)C(NCCCN(C)C)=C(c2cn(C)c3ccccc23)C1=O.Cl`, the Activity in experiment [1] was determined as 99%; in experiment [2], 82%; in experiment [3], 100%; in [4] it was 100%; in experiment [5], 85%; in experiment [6] it was 100%. Besides, the Activity in experiment [7] is 93%; in experiment [8] it was 93%; in [9], 100%; in [10] it was 100%; in experiment [11], 100%; in experiment [12], 90%. Further, the Activity in experiment [13] came out at 100%; in [14], 84%; in [15], 99%; in experiment [16], 89%; in [17] it was 66%; in experiment [18] it was 100%. Moreover, the Activity in experiment [19] stood at 77%; in experiment [20], 95%; in experiment [21] it was 88%; in experiment [22], 88%; in experiment [23], 92%; in experiment [24] it was 97%.
